These are literature values, as cited in patent US20230390267A1, “TREATMENT REGIMENS FOR EARLY IDIOPATHIC PARKINSON'S DISEASE” (BIAL - PORTELA & CA., S.A., priority 2020, published 2023).

Where two headings read alike, the source gives them in different places.

Series [1] relates to patients suffering from early idiopathic Parkinson's disease. The settings on record: addition of entacapone to levodopa/DDCI in early PD; cited from earlier work.
For series [2] the following is noted: cited from earlier work.
Series [3] concerns 'stable' PD patients. The settings on record: 6 months, cited from earlier work.
Where [4] appears, read: tolcapone 100 mg three times daily.
Where [5] appears, read: tolcapone 200 mg three times daily.

As for `CCN(CC)C(=O)/C(C#N)=C/c1cc(O)c(O)c([N+](=O)[O-])c1` [entacapone], the “onset of motor complications and frequency of dyskinesia” value in series [1] is “shorter time to onset of motor complications and increased frequency of dyskinesia”.

As to `N[C@@H](Cc1ccc(O)c(O)c1)C(=O)O` [levodopa], the “plasma half-life of levodopa” value in series [2] (oral levodopa combined with carbidopa) is 1.5 h. The “half-life of oral levodopa” value in series [2] (when administered with DDCIs) was 1 to 1.5 h. Further, in series [2] (when combined with a DDCI), the “extent of brain penetration of levodopa” value is 10%.

As to `Cc1ccc(C(=O)c2cc(O)c(O)c([N+](=O)[O-])c2)cc1` [tolcapone], in series [3] (setting [4]), the “reduction in UPDRS Part II activities of daily living (ADL) score” value is −1.4 points and the “reduction in UPDRS motor score” value is given as −2.0 points. In series [3] (setting [5]), the “reduction in UPDRS Part II activities of daily living (ADL) score” value is −1.6 points and the “reduction in UPDRS motor score” value is −2.3 points.
